Data on 22 molecules can be found in patent US7799775B2, “Pyrimidine derivatives” (ASKA Pharmaceutical Co., Ltd., priority 2004, dated 2010).

Test [1] addresses T1, human 5-HT3 receptor (Homo sapiens, UniProt P46098).
T1 construct: purchased BIOLINKS K.K; host or cells: HEK-293 cells (membrane preparation)
T1 sequence (P46098 24-478): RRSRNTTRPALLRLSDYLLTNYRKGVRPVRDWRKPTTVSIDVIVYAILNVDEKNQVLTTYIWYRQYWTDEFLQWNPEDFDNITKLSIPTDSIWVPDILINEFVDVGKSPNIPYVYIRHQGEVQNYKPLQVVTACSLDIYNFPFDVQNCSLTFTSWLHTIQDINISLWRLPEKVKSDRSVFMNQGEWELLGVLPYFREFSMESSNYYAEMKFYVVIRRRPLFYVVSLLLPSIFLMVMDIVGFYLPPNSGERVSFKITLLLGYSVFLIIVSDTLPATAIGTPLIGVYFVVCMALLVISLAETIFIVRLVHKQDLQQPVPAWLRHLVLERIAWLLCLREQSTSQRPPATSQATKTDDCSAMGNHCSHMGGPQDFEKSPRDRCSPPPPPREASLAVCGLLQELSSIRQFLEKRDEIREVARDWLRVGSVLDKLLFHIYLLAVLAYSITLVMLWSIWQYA
Briefly: Measurement of affinity to human 5-HT3 receptor (in vitro), [3H]BRL-43694 binding. To be noted: test compound 100 nmols/L; [3H]BRL-43694 0.5 nmols/L; HEK-293 cell membrane expressing human 5-HT3 receptor; read-out: Percent Inhibition (%) on Each Receptor's Binding at 10^−7M, 5-HT3. Summed up:
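Membranes from HEK-293 cells expressing the receptor were incubated with 0.5 nmol/L radioligand and compound for 60 min at 25 °C in Tris/MgCl2/EDTA buffer, pH 7.5. Bound radioactivity was collected by filtration and counted. Percent inhibition was corrected for non-specific binding defined with 10 μmol/L tropisetron; compounds were tested at 100 nmol/L.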

In test [2] the test system is rats under restraint stress. Briefly: Measurement of defecation acceleration in rats under restraint stress. Type of test: in vivo, rat. To be noted: 1 hour restraint stress, group average (Normal 1.7, Control 6.8). As for the experimental part:
(5) Measurement of Defecation Acceleration in Rats under Restraint Stress […] Feed and drinking water were left for their free ingestion until the morning of the day on which the test was given. On the day of the experiment, test compounds were orally administered and positive control solution (the used compounds were dissolved in 1N-hydrochloric acid and diluted with a suitable amount of saline) was administered intraperitoneally. Five (5) minutes thereafter, under lightly anesthetized condition, the rats were placed under restraint stress, with their upper half of the bodies including the front feet immobilized with gum tape. The restraint stress loading was conducted for an hour, and the number of excrements discharged during that period was counted. […] Those compounds which were used as the positive control chemicals used in the acceleration of defecation in rats under restraint stress are identified with the following structures.

For the molecule `Clc1ccc2ccnc(N3CCNCC3)c2c1` [Production Example 49, 7-chloro-1-piperazin-1-ylisoquinoline], the inhibition at 0.1 µM in test [1] is 96.3%.
Consider `c1cc2ccoc2c(N2CCN3CCC[C@H]3C2)n1` [Production Example 102, 7-((8aS)-octahydropyrrolo[1,2-a]pyrazin-2-yl)furo[2,3-c]-pyridine], for which, in test [1], the inhibition at 0.1 µM stood at 98.9%.
Consider `Cn1c(CCCCN2CCN(c3ccc4ccccc4n3)CC2)nc2ccccc2c1=O` [Example 7-20, 3-methyl-2-[4-(4-quinolin-2-ylpiperazin-1-yl)butyl]-3H-quinazolin-4-one], for which the Number of excrements in test [2] (1 mg/kg oral administration) amounted to 5.4; in test [2] (3 mg/kg oral administration), 3.6; in test [2] (10 mg/kg oral administration), 2.4. For the same molecule, in test [1], the inhibition at 0.1 µM stood at 92.9%.
Consider `c1cc2sccc2c(N2CCN3CCC[C@H]3C2)n1` [Production Example 104, 4-((8aS)-octahydropyrrolo[1,2-a]pyrazin-2-yl)thieno[3,2-c]pyridine], for which the inhibition at 0.1 µM in test [1] was found to be 99.3%.
Turning to `COc1ccc2ccnc(N3CCNC(C)C3)c2c1` (stereo not shown) [Production Example 38, 7-methoxy-1-(3-methylpiperazin-1-yl)isoquinoline], in test [1], the inhibition at 0.1 µM amounted to 93.1%.
In the case of `COc1ccc2ccnc(N3CCN4CCC[C@H]4C3)c2c1` [Production Example 72, 1-((8aS)-octahydropyrrolo[1,2-a]pyrazin-2-yl)-7-methoxyisoquinoline], the inhibition at 0.1 µM in test [1] was found to be 99.8%.
Consider `CN1CCN(c2nccc3ccsc23)CC1` [Production Example 6, 7-(4-methylpiperazin-1-yl)thieno[2,3-c]pyridine], for which, in test [1], the inhibition at 0.1 µM was 97.5%.
Still for that read-out and setting: for `CN1CCN(c2nccc3sccc23)CC1` [Production Example 8, 4-(4-methylpiperazin-1-yl)thieno[3,2-c]pyridine] the value was 93.3%; for `Cc1cc2c(N3CCN4CCC[C@H]4C3)nccc2s1` [Production Example 107, 4-((8aS)-octahydropyrrolo[1,2-a]pyrazin-2-yl)-2-methylthieno[3,2-c]-pyridine], 95.9%.
Still for that read-out and setting: the figure for `Nn1c(CCCCN2CCN(c3ccc4ccccc4n3)CC2)nc2ccccc2c1=O` [Example 4-3, 3-amino-2-[4-(4-quinolin-2-ylpiperazin-1-yl)butyl]-3H-quinazolin-4-one] is 83.6%.
On the same count and under the same terms, the figure for `c1cc2ccsc2c(N2CCN3CCC[C@@H]3C2)n1` [Production Example 108, 7-((8aR)-octahydropyrrolo[1,2-a]pyrazin-2-yl)thieno[2,3-c]pyridine] is 100%; for `Nn1c(CCCCN2CCN(c3ccc4ccccc4n3)CC2)nc2ccsc2c1=O` [Example 4-18, 3-amino-2-[4-(4-quinolin-2-ylpiperazin-1-yl)butyl]-3H-thieno[3,2-d]-pyrimidin-4-one] it is 50.9%; for `Clc1ccc2ccnc(N3CCN4CCC[C@H]4C3)c2c1` [Production Example 73, 7-chloro-1-((8aS)-octahydropyrrolo[1,2-a]pyrazin-2-yl)isoquinoline] it is 99.3%.
For `Nn1c(CCCCN2CCN(c3ccc4ccccc4n3)CC2)nc2cccc(Cl)c2c1=O` [Example 4-25, 3-amino-5-chloro-2-[4-(4-quinolin-2-ylpiperazin-1-yl)butyl]-3H-quinazolin-4-one], the inhibition at 0.1 µM in test [1] came out at 43.3%.
On to `c1cc2ccsc2c(N2CCN3CCC[C@H]3C2)n1` [Production Example 103, 7-((8aS)-octahydropyrrolo[1,2-a]pyrazin-2-yl)thieno[2,3-c]pyridine], for which the inhibition at 0.1 µM in test [1] amounted to 99.5%.
Still for that read-out and setting: for `CCn1c(CCCCN2CCN(c3cc(C)c4ccccc4n3)CC2)nc2c(c1=O)CCCC2` [Example 7-7, 3-ethyl-2-[4-[4-(4-methylquinolin-2-yl)piperazin-1-yl]butyl]-5,6,7,8-tetrahydro-3H-quinazolin-4-one] the value was 95%.
Turning to `Nn1c(CCCCN2CCN(c3ccc4ccccc4n3)CC2)nc2c(c1=O)CCCC2` [Example 4-1, 3-amino-2-[4-(4-quinolin-2-ylpiperazin-1-yl)butyl]-5,6,7,8-tetrahydro-3H-quinazolin-4-one], the results for the Number of excrements in test [2] (0.3 mg/kg intraperitoneal administration), in test [2] (1 mg/kg intraperitoneal administration) and in test [2] (3 mg/kg intraperitoneal administration) were 5.3, 4.3 and 2.1, respectively. In addition, in test [1], the inhibition at 0.1 µM was found to be 81.2%.
`CCn1c(CCCCN2CCN(c3ccc4ccccc4n3)CC2)nc2c(c1=O)CCCC2` [Example 7-2, 3-2-[4-(4-quinolin-2-ylpiperazin-1-yl)butyl]-5,6,7,8-tetrahydro-3H-quinazolin-4-one]: the inhibition at 0.1 µM in test [1] came out at 94.5%.
Regarding `Cc1cc(N2CCN(CCCCc3nc4ccccc4c(=O)n3N)CC2)nc2ccccc12` [Example 4-4, 3-amino-2-[4-[4-(4-methylquinolin-2-yl)piperazin-1-yl]butyl]-3H-quinazolin-4-one], in test [1], the inhibition at 0.1 µM came out at 78.6%.
On to `Cn1c(CCCCN2CCN(c3ccc4ccccc4n3)CC2)nc2c(c1=O)CCCC2` [Example 7-1, 3-methyl-2-[4-(4-quinolin-2-ylpiperazin-1-yl)butyl]-5,6,7,8-tetrahydro-3H-quinazolin-4-one], for which the Number of excrements in test [2] (1 mg/kg oral administration) was 5.8; in test [2] (3 mg/kg oral administration) it was 3.8; in test [2] (10 mg/kg oral administration), 2.3. Further, in test [1], the inhibition at 0.1 µM is 94.2%.
As for `Cc1cc(N2CCN(CCCCc3nc4c(c(=O)n3C)CCCC4)CC2)nc2ccccc12` [Example 7-6, 3-methyl-2-[4-[4-(4-methylquinolin-2-yl)piperazin-1-yl]butyl]-5,6,7,8-tetrahydro-3H-quinazolin-4-one], the Number of excrements in test [2] (1 mg/kg oral administration) is on record as 5.4; in test [2] (3 mg/kg oral administration), 4.0; in test [2] (10 mg/kg oral administration), 2.9. Further, the inhibition at 0.1 µM in test [1] worked out at 93.8%.
With `Cc1ccc2ccnc(N3CCN(C)CC3)c2c1` [Production Example 47, 7-methyl-1-(4-methylpiperazin-1-yl)isoquinoline], in test [1], the inhibition at 0.1 µM was found to be 93.6%.

In general, inhibition refers to the change of the read-out against control, counted positive when it falls.
